Reference: BindingDB's records for doi:10.1016/j.bmc.2017.03.072 (Ewha Womans University, 2017)

biological target: Interleukin-6 (Human, UniProt P05231); experiment: ChEBML_1684684
Protocol: Inhibition of IL-6 signaling pathway in human HepG2 cells transfected with p-STAT3-Luc assessed as reduction in IL-6 induced STAT3 phosphorylation preincubated for 1 hr followed by IL-6 induction measured after 10 mins by immunoblot analysis

Sequence of Interleukin-6 (P05231 whole entry): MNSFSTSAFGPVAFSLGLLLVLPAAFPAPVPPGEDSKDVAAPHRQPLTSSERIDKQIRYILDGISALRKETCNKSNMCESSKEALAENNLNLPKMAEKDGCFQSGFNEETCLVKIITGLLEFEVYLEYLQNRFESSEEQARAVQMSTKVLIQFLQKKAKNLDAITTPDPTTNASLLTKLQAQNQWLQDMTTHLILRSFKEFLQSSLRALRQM

Row | SMILES | IC50 [µM]
1 | C=C1C(C)=C(CCCC)C(=O)[C@]1(C)CN1c2ccccc2[C@]2(O)CCO[C@H]12 | 20.7
2 | CCc1ccc(Nc2nc3cc(N)ccc3o2)cc1 | 18.9
3 | CCc1ccc(Nc2nc3cc(NC(=O)c4ccccc4)ccc3o2)cc1 | 5.8
